Results published in patent US7872041B2, “Use of rotigotine for treating and preventing Parkinson's plus syndrome” (priority 2004, dated 2011).

Columns and labels:
[1] = system: MPTP mouse model; test: Acute MPTP model, FluoroJade staining of degenerating neurons; format: in vivo, mice; settings: for Number of degenerating neurons: FluoroJade staining
Experimental: The results set forth below in Table 2 indicate the number of acutely degenerating neurons in the MPTP mouse model shown with FluoroJade staining with and without treatment with a single administration of rotigotine:
To induce intoxication, mice were administered 80 mg/kg of the neurotoxin 1-methyl-4-phenyl-1,2,3,6-tetrahydro-pyridine (MPTP) (in portions of 20 mg/kg at two-hourly intervals) resulting in the degeneration of approximately 50-60% of the neurons in the substantia nigra. Approximately 16 hours previously, rotigotine was added in doses of 0.3, 1 or 3 mg/kg respectively as a so-called ‘slow-release formulation’ (see embodiment 2). Diffusion and absorption latencies mean that rotigotine is optimally available when MPTP is added. Animals that were only given the vehicle solution (see embodiment 2 without rotigotine HCl) served as controls. After 24 hours, the animals were sacrificed and the brains fixed. The brain sections were stained with FluoroJade for the identification of degenerating cells. Immunohistochemical marking of the tyrosine hydroxylase was used to identify dopaminergic neurons. […] The number of the degenerating neurons was approximately 50% lower after the application of rotigotine, which is further confirmation of the neuroprotective properties of the substance (Table 2).

[2] = system: MPTP mouse model; test: Subacute MPTP model, dopamine transporter density in the striatum; format: in vivo, mice
Experimental: To induce intoxication, mice were administered 80 mg/kg of the neurotoxin 1-methyl-4-phenyl-1,2,3,6-tetrahydro-pyridine (MPTP) (in portions of 20 mg/kg in two-hourly intervals, groups 3-6 in FIGS. 1 and 2) resulting in the degeneration of about 50-60% of the neurons of the substantia nigra (maximum degeneration in group 3 in FIGS. 1 and 2). Rotigotine was administered daily in doses of 0.3, 1 or 3 mg/kg respectively over 7 days as a so-called ‘slow-release formulation’ (see embodiment 2) (groups 4-6 in FIGS. 1 and 2). A group of MPTP-treated animals (group 3) was given rotigotine-vehicle solution (see embodiment 2 without rotigotine HCl) and served as a reference. The controls were groups 1, 2 and 7, whereby group 1 is not given any treatment, group 2 is treated with the vehicle-solutions for MPTP and rotigotine, and group 7 was exclusively given rotigotine. The animals were sacrificed on day 8, their brains removed and frozen. Frozen sections were incubated with 100 pm[^125I] PE21 ([^125I]-(E)-N(3-iodoprop-2-enyl)-2β-carboxymethyl-3β-(4′-methylphenyl)-nortropane) in a phosphate buffer, pH 7.4 in order to mark the quantity of dopamine transporters still present in the striatum as an indicator of the quantity of functioning nerve endings. […] This is clear evidence of the neuroprotective properties of the substance (FIG. 1 and 2).

[3] = system: MPTP model in monkeys (macaques); test: Progressive MPTP primate model, pilot study; format: in vivo
Experimental: In the MPTP model used, which reflects the progressive course of dopaminergic cell destruction in primates, monkeys (macaques) were injected with subthreshold toxic doses of MPTP over several days. The parkinsonian symptoms developed in the model over a period of approximately 2 weeks. As soon as a specific degree of damage was reached, daily injections of rotigotine were provided in a formulation giving rise to a continuous plasma level over a 24 hour period. The injections of MPTP were stopped as soon as the motor activity in the controls had reduced by a specific degree (approximately 5 days later). The animals' behavior was evaluated every day. […] At the end of rotigotine application or at the end of the wash-out phase, in each case one group of animals was sacrificed and the condition of the basal ganglia investigated histologically and biochemically. The density of the nerve endings in the striatum of the treated animals was much higher than it was in the untreated animals.

[4] = transdermal administration, WO 02/089777 and other authors; cited from earlier work

With `CCCN(CCc1cccs1)[C@H]1CCc2c(O)cccc2C1` [rotigotine, (−)5,6,7 ,8-tetrahydro-6-[propyl[2-(2-thienyl)ethyl]amino]-1-naphthol] the “Number of degenerating neurons” value ([1]; MPTP intoxication + rotigotine 0.3 mg/kg, single administration) was 66.7, the “Number of degenerating neurons” value ([1]; MPTP intoxication + rotigotine 1.0 mg/kg, single administration) was 76.8 and the “Number of degenerating neurons” value ([1]; MPTP intoxication + rotigotine 3.0 mg/kg, single administration) was 34.9. For the same compound, the “Number of degenerating neurons” value ([1]; MPTP-vehicle + rotigotine 3.0 mg/kg (no MPTP)) was 3.8, the “Number of degenerating neurons lower after application of rotigotine” value ([1]; acute MPTP model, versus MPTP without rotigotine) was “approximately 50%” and the “Number of degenerating neurons in the mesencephalon” value ([1]; acute phase after MPTP, after administration of rotigotine) was “reduced”. The “Staining of the tyrosine hydroxylase (dopaminergic neurons)” value ([1]; treated versus untreated animals, 24 hours after MPTP) was “did not identify any differences between the treated and untreated animals”, the “Survival of the neurons and the nerve endings” value ([2]; 0.3, 1 or 3 mg/kg daily over 7 days, slow-release formulation) was “improves the survival of the neurons and the nerve endings in relation to the dose” and the “Dopaminergic innervation of the striatum (density of the dopamine transporter)” value ([2]; subacute phase after MPTP) was “virtually completely retained or restored”. The Content of preproenkephalin ([3]; after the treatment and after the wash-out phase) was “tendency toward normalization”, the “Density of the nerve endings in the striatum” value ([3]; treated versus untreated animals) was “much higher” and the “Motor activity of the animals” value ([3]; under treatment with daily injections and in the following wash-out phase) was “significantly improved”. For the same compound, the UPDRS scores [4] was “improvement”.
